This is an account of results in patent US10912741B2, “Prevention of liver cancer with safranal-based formulations” (United Arab Emirates University, priority 2019, dated 2021).

What all share (assay type): in vivo, albino Wistar rats
Assay [1] deals with superoxide dismutase (SOD). Put plainly: Superoxide dismutase in liver homogenate, DEN/2-AAF hepatocarcinogenesis model. The following applies: mean±SEM, 8 rats. The procedure:
The experimental hepatocarcinogenesis model was developed according to a protocol by […] et al. that was adapted for our purposes. To initiate and promote hepatocarcinogenesis, diethylnitrosamine (DEN) and 2-acetylaminofluorene (2-AAF) were used, respectively. For hepatocarcinogenesis initiation in this model, a single DEN dose (200 mg/kg b.wt.) dissolved in saline was injected intraperitoneally. After initiation, all rats underwent one period of 5-days fasting, as mitotic proliferative stimuli. To promote hepatocarcinogenesis, 2-acetylaminofluorene (2-AAF) was introduced in the form of six daily intragastric doses (30 mg/kg in 1% Tween 80); two weeks after DEN treatment. […] at doses of 25 mg/kg by weight (b.wt.) and 50 mg/kg b.wt, was administrated orally to rats. These doses have been reported to suppress chemically-induced oxidative damage in rats. A total of 40 adult male albino Wistar rats were randomly divided into […] (n=8) and were subjected to different treatments. Group 1 (control) was orally administered distilled water (5 ml/kg b.wt.) throughout the experimental duration and were injected with a single dose of saline. Group 2 ([…] only) was subjected to a safranal dose (50 mg/kg b.wt.) through oral administration for the duration of the experimental period. Hepatocarcinogenesis was induced by DEN and promoted by 2-AAF, as reported previously, in group 3 (HCC). […] Glutathione (GSH) content was determined by analyzing liver homogenates, according to the method of Van Dooran et al. The assay depends on measuring yellow 5-thiol-2-nitrobenzoate absorbance at 412 nm. Glutathione-S-transferase (GST) activity was determined using the method of Habig et al. GST catalyzes the conjugation of GSH thiol group with 1-Chloro-2,4-dinitrobenzene (CDNB), which can be measured by determining the increase in absorbance at 340 nm. […] CAT decomposes hydrogen peroxide (H2O2) to oxygen and water; therefore, the activity of CAT was evaluated according to by the exponential decomposition of H2O2 at 240 nm. […] UV-160-Shimadzu recording spectrophotometer was used to record absorbances. […]

Assay [2] deals with p-TNF-R1. Description: Immunohistochemical staining of liver sections, p-TNF-R1 positive cells. The procedure:
(§1) The experimental hepatocarcinogenesis model was developed according to a protocol by Espandiaria et al. that was adapted for our purposes. To initiate and promote hepatocarcinogenesis, diethylnitrosamine (DEN) and 2-acetylaminofluorene (2-AAF) were used, respectively. For hepatocarcinogenesis initiation in this model, a single DEN dose (200 mg/kg b.wt.) dissolved in saline was injected intraperitoneally. After initiation, all rats underwent one period of 5-days fasting, as mitotic proliferative stimuli. To promote hepatocarcinogenesis, 2-acetylaminofluorene (2-AAF) was introduced in the form of six daily intragastric doses (30 mg/kg in 1% Tween 80); two weeks after DEN treatment.
Safranal at doses of 25 mg/kg by weight (b.wt.) and 50 mg/kg b.wt, was administrated orally to rats. These doses have been reported to suppress chemically-induced oxidative damage in rats. A total of 40 adult male albino Wistar rats were randomly divided into […] (n=8) and were subjected to different treatments. […]
(§2) For immunohistochemical staining, mounted sections were immersed in sodium citrate buffer (0.1 M, pH 6) and placed in a water bath for 15 minutes to unmask antigen epitopes. […] Ten fields were randomly selected to quantify positive cells, in individual samples (400×). […]

The subject of assay [3] is iNOS. Put plainly: Immunohistochemical staining of liver sections, iNOS positive cells. Conditions: mean±SEM, 8 rats. How it is done:
as §1
Safranal at doses of 25 mg/kg by weight (b.wt.) and 50 mg/kg b.wt, was administrated orally to rats. These doses have been reported to suppress chemically-induced oxidative damage in rats. A total of 40 adult male albino Wistar rats were randomly divided into […] (n=8) and were subjected to different treatments. Group 1 (control) was orally administered distilled water (5 ml/kg b.wt.) throughout the experimental duration and were injected with a single dose of saline. Group 2 (Safranal only) was subjected to a safranal dose (50 mg/kg b.wt.) through oral administration for the duration of the experimental period. Hepatocarcinogenesis was induced by DEN and promoted by 2-AAF, as reported previously, in group 3 (HCC). Rats in protective groups (groups 4-5) were treated with low/high doses of saffron-based safranal suspensions, at the beginning of promotion periods and continued for 12 weeks. The low dosage treatment with safranal consisted of 25 mg/kg b.wt., and the high dosage treatment consisted of 50 mg/kg b.wt. The experimental design is illustrated in FIG. 1.
as §2

Setting [4] is: HCC (DEN/2-AAF) rats + safranal high dose 50 mg/kg b.wt. oral, 12 weeks.
Where [5] appears, read: HCC (DEN/2-AAF) rats + safranal low dose 25 mg/kg b.wt. oral, 12 weeks.
[6] abbreviates: safranal alone 50 mg/kg b.wt. oral, no DEN (group 2).

SMILES strings stand for the structures. Marks after values point to notes of the source that are not given here.

In the case of `CC1=C(C=O)C(C)(C)CC=C1` [Safranal, 2,6,6-trimethylcyclohexa-1,3-diene-1-carbaldehyde], the SOD was 3.96 ± 0.13 unit/mg protein in assay [1] (setting [4]), 4.02 ± 0.18 unit/mg protein in assay [1] (setting [5]) and 4.05 ± 0.09 unit/mg protein in assay [1] (setting [6]). Besides, the “number of p-TNF-R1 positive cells” value in assay [2] (low/high doses of safranal, DEN-2-AAF-treated animals (groups 4-5), vs HCC group) is “highly significant decrease”; in assay [2] (safranal alone, compared to control group), “change of no significance”. Also, the iNOS positive cells in assay [3] (setting [4]) is reported as 2.57 ± 0.30^b positive cells/field; in assay [3] (setting [5]) it was 5.09 ± 0.26^a&b positive cells/field; in assay [3] (setting [6]), 0.87 ± 0.04 positive cells/field.
